Measured values from ChEMBL document CHEMBL1201862, “PubChem BioAssay data set” (2004).
The source made the active and inactive calls.

Tests used:
[1] = tested on: HEK293; assay: HEK293T cell viability loss, resazurin readout – resazurin fluorescence, cytotoxicity control for NF-kB activator project, SAR follow-up (AID 493251); format: functional, cell-based; conditions: Homo sapiens
[2] = NIH3T3 cell viability loss – ATP luminescence, mouse fibroblasts, counter-screen, dose response (AID 2010); format: functional, cell-based;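 note: cells exposed to compound for about 90 hours before reading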
[3] = Luminescence-based dose response cell-based high throughput screening assay for cytotoxic compounds using the IEC-6 intestinal epithelial cell line. [Related pubchem assays: 1858 (Summary AID.), 1825 (Counterscreen.), 1907 (Confirmation screen.)]; format: functional
[4] = cells; format: functional, cell-based
[5] = THP-1 cell cytotoxicity, dose response, cytotoxicity control for non-replicating M. tuberculosis project (AID 489025); format: functional
[6] = mitochondrial function rescue without frataxin homolog – Friedreich's ataxia, plus single-dose screen, dose response (AID 1465); format: functional;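 note: yeast depleted of Yfh1p frataxin homolog grown on glycerol needing respiration; WST-1 tetrazolium dye reduction as measure of cellular dehydrogenase metabolic activity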
[7] = viability of HCT116 lacking mutant beta-catenin – cell-based, human colon tumor, dose response (AID 1045); format: functional;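 note: HCT116 colon tumor cells with beta catenin knocked out; cells exposed to compound for 60 hours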
[8] = target: Induced myeloid leukemia cell differentiation protein Mcl-1 (Homo sapiens, UniProt Q07820); format: functional
Induced myeloid leukemia cell differentiation protein Mcl-1, sequence (Q07820 whole entry): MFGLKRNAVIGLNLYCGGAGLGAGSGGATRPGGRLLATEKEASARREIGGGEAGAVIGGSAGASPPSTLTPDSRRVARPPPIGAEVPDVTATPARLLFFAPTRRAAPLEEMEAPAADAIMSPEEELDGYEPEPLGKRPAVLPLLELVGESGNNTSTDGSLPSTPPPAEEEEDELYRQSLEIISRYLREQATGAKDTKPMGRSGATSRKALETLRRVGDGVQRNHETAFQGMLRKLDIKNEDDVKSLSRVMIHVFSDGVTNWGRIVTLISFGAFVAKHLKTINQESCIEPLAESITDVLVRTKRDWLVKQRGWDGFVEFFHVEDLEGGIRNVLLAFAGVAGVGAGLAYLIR

[9] = target: Beta Lactamase (Pseudomonas aeruginosa, UniProt Q932Y6); assay: BLA reporter interference, concentration series – BLA reporter cells, FRET fluorescence, artefact control for TLR9-MyD88 binding inhibitor project, dose response (AID 588341); format: cell-based;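 note: cell based assay in CHO-K1 cells stably expressing beta-lactamase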
Beta Lactamase, sequence (Q932Y6 whole entry): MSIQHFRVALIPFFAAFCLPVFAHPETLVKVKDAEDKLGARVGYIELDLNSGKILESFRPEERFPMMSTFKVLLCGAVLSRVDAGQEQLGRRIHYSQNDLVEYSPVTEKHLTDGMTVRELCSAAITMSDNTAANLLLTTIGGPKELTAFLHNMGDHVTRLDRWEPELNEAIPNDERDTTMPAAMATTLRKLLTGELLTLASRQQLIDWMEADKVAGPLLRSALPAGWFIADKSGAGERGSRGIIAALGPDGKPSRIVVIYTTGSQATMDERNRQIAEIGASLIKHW

[10] = target: T1, Sentrin-specific protease 8 (Homo sapiens, UniProt Q96LD8); format: functional;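 note: luminescence read-out of SENP8 inhibition, dose-response confirmation following an ultra-high-throughput screen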
T1 sequence (Q96LD8 whole entry): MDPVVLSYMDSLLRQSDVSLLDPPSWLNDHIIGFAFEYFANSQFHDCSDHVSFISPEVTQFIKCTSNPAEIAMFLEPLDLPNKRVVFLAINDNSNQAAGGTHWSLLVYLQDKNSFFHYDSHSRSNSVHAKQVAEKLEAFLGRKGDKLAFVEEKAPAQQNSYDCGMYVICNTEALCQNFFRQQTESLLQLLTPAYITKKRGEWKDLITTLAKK

[11] = target: T2, Caspase-3 (Homo sapiens, UniProt P42574); format: functional;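 note: Dose-response selectivity test against caspase-3 for candidate inhibitors of sentrin-specific proteases (SENPs)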
T2 sequence (P42574 whole entry): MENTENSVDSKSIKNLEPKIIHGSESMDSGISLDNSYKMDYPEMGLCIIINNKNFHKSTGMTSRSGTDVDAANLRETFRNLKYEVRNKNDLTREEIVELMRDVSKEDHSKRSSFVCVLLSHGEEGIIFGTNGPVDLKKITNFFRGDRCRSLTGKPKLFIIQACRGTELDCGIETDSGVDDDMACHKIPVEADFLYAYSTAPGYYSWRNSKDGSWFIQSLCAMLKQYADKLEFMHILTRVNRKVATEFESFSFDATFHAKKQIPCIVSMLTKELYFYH

[12] = target: T3, Sentrin-specific protease 6 (Homo sapiens, UniProt Q9GZR1); format: functional;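 note: Luminescence-based dose-response confirmatory assay of SENP6 inhibition, following up an ultra-high-throughput screen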
T3 sequence (Q9GZR1 whole entry): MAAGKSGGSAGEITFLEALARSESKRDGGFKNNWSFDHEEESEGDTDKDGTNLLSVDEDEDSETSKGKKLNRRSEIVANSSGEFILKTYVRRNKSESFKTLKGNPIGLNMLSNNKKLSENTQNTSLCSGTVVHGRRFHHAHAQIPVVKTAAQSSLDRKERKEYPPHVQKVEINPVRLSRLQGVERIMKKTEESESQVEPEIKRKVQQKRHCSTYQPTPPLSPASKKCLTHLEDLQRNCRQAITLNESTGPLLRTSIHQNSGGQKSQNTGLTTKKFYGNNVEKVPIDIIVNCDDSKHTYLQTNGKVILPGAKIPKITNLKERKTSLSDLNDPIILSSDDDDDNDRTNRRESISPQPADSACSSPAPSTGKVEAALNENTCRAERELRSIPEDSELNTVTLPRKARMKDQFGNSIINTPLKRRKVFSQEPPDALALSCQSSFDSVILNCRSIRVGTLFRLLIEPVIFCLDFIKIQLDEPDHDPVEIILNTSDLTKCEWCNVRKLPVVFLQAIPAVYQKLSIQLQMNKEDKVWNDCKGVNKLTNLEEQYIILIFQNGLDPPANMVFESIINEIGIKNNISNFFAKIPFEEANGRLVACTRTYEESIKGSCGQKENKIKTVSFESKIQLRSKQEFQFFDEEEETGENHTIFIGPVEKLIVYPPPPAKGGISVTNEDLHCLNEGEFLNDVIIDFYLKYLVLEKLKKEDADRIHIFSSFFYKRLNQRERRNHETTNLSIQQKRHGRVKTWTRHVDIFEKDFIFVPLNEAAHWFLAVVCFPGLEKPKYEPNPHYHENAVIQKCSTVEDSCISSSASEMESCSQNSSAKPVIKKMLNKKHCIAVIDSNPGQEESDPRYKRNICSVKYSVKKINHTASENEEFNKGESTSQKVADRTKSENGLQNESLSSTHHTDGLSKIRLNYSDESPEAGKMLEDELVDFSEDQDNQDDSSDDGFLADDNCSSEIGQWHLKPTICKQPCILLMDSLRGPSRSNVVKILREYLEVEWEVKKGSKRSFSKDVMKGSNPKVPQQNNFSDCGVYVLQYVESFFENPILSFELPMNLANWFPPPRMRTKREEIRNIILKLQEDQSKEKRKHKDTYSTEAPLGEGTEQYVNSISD

[13] = target: T4, Protein skinhead-1 (Caenorhabditis elegans, UniProt P34707); format: functional
T4 sequence (P34707 whole entry): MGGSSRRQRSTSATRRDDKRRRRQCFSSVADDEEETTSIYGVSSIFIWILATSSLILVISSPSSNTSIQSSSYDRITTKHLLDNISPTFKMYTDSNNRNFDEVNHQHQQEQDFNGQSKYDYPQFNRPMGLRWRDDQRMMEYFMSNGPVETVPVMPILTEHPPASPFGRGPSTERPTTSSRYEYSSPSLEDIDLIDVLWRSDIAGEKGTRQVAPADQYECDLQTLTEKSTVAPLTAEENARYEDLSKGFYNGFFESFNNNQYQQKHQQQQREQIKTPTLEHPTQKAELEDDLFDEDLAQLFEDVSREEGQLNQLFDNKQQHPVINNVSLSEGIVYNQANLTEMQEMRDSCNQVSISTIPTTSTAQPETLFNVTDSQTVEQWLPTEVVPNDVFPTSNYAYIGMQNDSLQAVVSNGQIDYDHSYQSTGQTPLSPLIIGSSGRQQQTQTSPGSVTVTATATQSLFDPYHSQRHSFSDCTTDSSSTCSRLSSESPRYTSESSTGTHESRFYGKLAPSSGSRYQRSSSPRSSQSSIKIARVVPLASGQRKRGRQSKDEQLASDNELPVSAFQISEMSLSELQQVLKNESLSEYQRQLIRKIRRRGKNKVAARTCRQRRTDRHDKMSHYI

In the case of CC(=O)NC(c1ccc2ccccc2c1)c1ccc2cccnc2c1O (centres undefined), the IC50 [1] is reported as 21.5 µM (inactive), the EC50 [2] is reported as 0.589 µM (active) and the IC50 [3] is reported as 1.05 µM (active). For the same compound, the EC50 [4] was 7.14 µM (active).

With CCOC(=O)C1=C(c2ccccc2)N=C(N)NC1c1ccc(OCc2ccc(Cl)cc2)c(OC)c1 (centres undefined) the CC50 [5] was 9.43 µM (active).

In the case of CCOC(=O)c1c(C)[nH]c2c1-c1ccccc1C(=O)C2=O, the EC50 [6] is reported as > 100 µM (active), the EC50 [7] is reported as 0.403 µM (active) and the IC50 [3] is reported as 0.421 µM (active).

With O=[N+]([O-])c1c(NCCO)cc(Sc2nc3ccccc3s2)c2nonc12 the EC50 [7] was 10.7 µM (active), the IC50 [8] was 11.1 µM (not active) and the IC50 [9] was 9.17 µM (active).

For O=C(c1ccccc1)c1coc2c1C(=O)c1ccccc1C2=O, the IC50 [10] was 17.4 µM (active), the IC50 [11] was 25.7 µM (active) and the IC50 [12] was 4.61 µM (active).

For CCOC(=O)c1c(C)oc2c1c(/C=N/CCC(=O)O)c(O)c1ccccc12, the IC50 [13] was > 100 µM (inactive).

With COc1ccc2c(c1)CCC(/C=N/c1ccc3c(c1)OCO3)=C2O the IC50 [10] was 15.1 µM (active), the IC50 [11] was 65.5 µM (active) and the IC50 [12] was 8.46 µM (active). The IC50 [8] was 16.7 µM (not active).
